The values that follow are results of earlier work, collected in US11452288B1, “Innocuous sterilant using hemocyanin and functionalized fullerenes with broad-spectrum intracellular and interstitial microbiocidal and radical scavenging effects for packaged matter, biologics and organics including liquids, gases, tissue, organs, cells, and limbs with copper mediated oxygenation …” (priority 2022, dated 2022).

One data set deals with endothelial. The note with it: optimal antifungal concentrations in the nutrient media.
Data set [1] has as its system fungal donor rim cultures. The note with it: additive to Optisol-GS, compared with Optisol-GS alone.

Turning to `C[C@@H]1[C@H](O)[C@@H](C)/C=C/C=C/C=C/C=C/C=C/C=C/C=C/[C@H](O[C@@H]2O[C@H](C)[C@@H](O)[C@H](N)[C@@H]2O)C[C@@H]2O[C@](O)(C[C@@H](O)C[C@@H](O)[C@H](O)CC[C@@H](O)C[C@@H](O)CC(=O)O[C@H]1C)C[C@H](O)[C@H]2C(=O)O` [Amphotericin B], the endothelial toxicity result in the data set on endothelial is listed as “significant endothelial toxicity”.

`C[C@@H](c1ncncc1F)[C@](O)(Cn1cncn1)c1ccc(F)cc1F` [voriconazole]: in data set [1], the “rate of positive fungal donor rim cultures” value is “significant reduction”.
